Paper PMC10243163, “A frog‐derived antimicrobial peptide as a potential anti‐biofilm agent in combating Staphylococcus aureus skin infection” (Journal of Cellular and Molecular Medicine, 2023)
Positions of bridges follow the written chain, without caps; N, C: chain ends. Residues, ends and D or L forms follow the SMILES beside them.

How the values were obtained:
S. aureus ATCC 6538 [1] = format: cell-based, Staphylococcus aureus
Experimental: (§1) Antimicrobial assays were conducted using standard broth micro‐dilutions, as mentioned previously.[11] Gram‐positive bacteria S. aureus (ATCC 6538), Methicillin‐resistant S. aureus (MRSA; NCTC 12493), […] (NCTC 12697), Gram‐negative bacteria Escherichia coli (ATCC 8739), Klebsiella pneumoniae (ATCC 43816), Pseudomonas aeruginosa (ATCC 9027), Acinetobacter baumannii (ATCC BAA 747), and yeast, Candida albicans (ATCC 10231) were used in the test. The experiments were conducted in three independent runs.

P. aeruginosa ATCC 9027 [2] = format: cell-based, Pseudomonas aeruginosa
Experimental: as §1

MRSA NCTC 12493 [3] = format: cell-based, Methicillin‐resistant S. aureus
Experimental: as §1

E. faecalis NCTC 12697 [4] = format: cell-based; settings: NCTC 12697, 24 h
Experimental: (§2) The bacterial culture (5 × 10^5 CFU/mL) was cultured in a sterile 96‐well plate for 24 h to generate mature biofilms. The planktonic bacteria were removed by washing three times with sterile PBS buffer. Then, fresh broth with different peptide concentrations was added to each well and further incubated for another 24 h. Then, the plate was stained with crystal violet. The stain was solubilised in 30% acetic acid, and the absorbance was measured at 595 nm. The experiments were conducted in three independent runs.

P. aeruginosa ATCC 9027 [5] = format: cell-based, Pseudomonas aeruginosa; settings: ATCC 9027, 24 h
Experimental: as §2

MRSA NCTC 12493 [6] = format: cell-based, Methicillin‐resistant S. aureus; settings: NCTC 12493, 24 h
Experimental: (§3) Peptide solutions were first mixed with bacterial cultures (5 × 10^5 CFU/mL) and incubated at 37°C for 24 h. The planktonic bacterial cells were gently removed by washing with PBS the next day, and methanol was utilised to fix the biofilm. Crystal violet (0.1% v/v), PBS and acetic acid (30%, v/v) were subsequently used to stain biofilm, remove remaining stains and re‐dissolve stains, respectively. The absorbance was determined at 595 nm. The experiments were conducted in three independent runs.

E. faecalis NCTC 12697 [7] = format: cell-based
E. faecalis NCTC 12697 [8] = format: cell-based; settings: NCTC 12697, 24 h; remark: listed apart in the source
Experimental: as §3

S. aureus ATCC 6538 [9] = format: cell-based, Staphylococcus aureus; settings: ATCC 6538, 24 h
Experimental: as §3

E. coli ATCC 8739 [10] = format: cell-based, Escherichia coli
Experimental: as §1

K. pneumoniae ATCC 43816 [11] = format: cell-based, Klebsiella pneumoniae; settings: ATCC 43816, 24 h
Experimental: as §3

P. aeruginosa ATCC 9027 [12] = format: cell-based, Pseudomonas aeruginosa; settings: ATCC 9027, 24 h; remark: listed apart in the source
Experimental: as §3

K. pneumoniae ATCC 43816 [13] = format: cell-based, Klebsiella pneumoniae; settings: ATCC 43816, 24 h; remark: listed apart in the source
Experimental: as §2

MRSA NCTC 12493 [14] = format: cell-based, Methicillin‐resistant S. aureus; settings: NCTC 12493, 24 h; remark: listed apart in the source
Experimental: as §2

E. coli ATCC 8739 [15] = format: cell-based, Escherichia coli; settings: ATCC 8739, 24 h
Experimental: as §3

[16] = tested on: Gram‐positive and Gram‐negative test bacteria; format: cell-based
Experimental: as §1

C. albicans ATCC 10231 = format: cell-based, Candida albicans
Experimental: as §1

K. pneumoniae ATCC 43816 [17] = format: cell-based, Klebsiella pneumoniae
Experimental: as §1

horse erythrocytes = test: Haemolytic activity; format: cell-based; settings: 128 μM peptide; horse erythrocytes 2% v/v, 37°C, 2 h; 0.1% Triton X‐100 positive control; absorbance 570 nm; three independent runs
Experimental: The haemolytic activity of peptides was conducted using horse erythrocytes (2%, v/v). Peptide solutions were mixed with washed horse erythrocyte suspension at 37°C for 2 h. Triton X‐100 (0.1%) was used as a positive control. The mixture was then centrifuged at 930 g for 5 min. The absorbance of the supernatants was detected at 570 nm. The haemolysis rate was calculated using the formula: Haemolysis%=Sample group−negative group/positive group−negative group×100%.
This experiment was performed in three independent runs.

[18] = tested on: Gram‐positive and Gram‐negative test bacteria; format: cell-based; settings: geometric mean of MICs against the three Gram‐negative strains
S. aureus ATCC 6538 [19] = format: cell-based, Staphylococcus aureus; settings: ATCC 6538, 24 h; remark: listed apart in the source
Experimental: as §2

E. coli ATCC 8739 [20] = format: cell-based, Escherichia coli; settings: ATCC 8739, 24 h; remark: listed apart in the source
Experimental: as §2

CC[C@H](C)[C@@H]1NC(=O)[C@H](CCCCN)NC(=O)[C@@H](NC(=O)[C@H](CC(C)C)NC(=O)[C@@H](NC(=O)[C@H](CCCCN)NC(=O)[C@@H]2CCCN2C(=O)[C@H](CC(C)C)NC(=O)[C@H](Cc2ccccc2)NC(=O)[C@H](CC(N)=O)NC(=O)[C@H](C)NC(=O)[C@H](C)NC(=O)[C@H](CC(C)C)NC(=O)CNC(=O)[C@H](C)NC(=O)[C@@H](NC(=O)[C@H](CC(C)C)NC(=O)[C@@H]2CCCN2C(=O)[C@@H](N)Cc2ccccc2)[C@@H](C)CC)[C@@H](C)CC)CSSC[C@@H](C(=O)O)NC(=O)[C@H](CCCCN)NC(=O)[C@H](CCCNC(=N)N)NC(=O)[C@H](C)NC1=O [OG9] (H-FPLIAGLAANFLPKILCKIARKC-OH; disulfide 17-23)
4 µM: MIC (S. aureus ATCC 6538 [1]) | MBC (E. coli ATCC 8739 [10]) | MIC (E. coli ATCC 8739 [10])
8 µM: MBC (S. aureus ATCC 6538 [1])
around 85%: Haemolysis (horse erythrocytes)
32 µM: MBC (MRSA NCTC 12493 [3]) | MBIC (E. faecalis NCTC 12697 [8]) | MBIC (E. coli ATCC 8739 [15])
12.7 µM: GM MIC, total bacteria ([16]; geometric mean of MICs against all test bacteria)
10.1 µM: GM MIC, G+ ([16]; geometric mean of MICs against the three Gram‐positive strains)
64 µM: MBC (K. pneumoniae ATCC 43816 [17]) | MIC (K. pneumoniae ATCC 43816 [17])
> 128 µM: MBEC (E. faecalis NCTC 12697 [4]) | MBEC (MRSA NCTC 12493 [14]) | MBC (C. albicans ATCC 10231) | MIC (C. albicans ATCC 10231) | MBEC (S. aureus ATCC 6538 [19]) | MBEC (E. coli ATCC 8739 [20])
16 µM: MBC (P. aeruginosa ATCC 9027 [2]) | MIC (P. aeruginosa ATCC 9027 [2]) | MIC (MRSA NCTC 12493 [3]) | MBIC (MRSA NCTC 12493 [6]) | MBC (E. faecalis NCTC 12697 [7]) | MIC (E. faecalis NCTC 12697 [7]) | MBIC (S. aureus ATCC 6538 [9]) | GM MIC, G− [18]
>128/>128 μM: MBEC (P. aeruginosa ATCC 9027 [5]) | MBIC (K. pneumoniae ATCC 43816 [11]) | MBIC (P. aeruginosa ATCC 9027 [12]) | MBEC (K. pneumoniae ATCC 43816 [13])
